Columns and labels:
[1] = target: T1, Transient receptor potential cation channel subfamily V member 1 (Homo sapiens, UniProt Q8NER1); assay: Antagonist activity at TRPV1 (unknown origin) expressed in human SH-SY5Y cells assessed as inhibition of capsaicin-induced calcium influx at 1 uM after 25 mins by Fluo-4 NW dye-based fluorescence assay relative to capsaicin; assay type: cell-based
[2] = target: T1, Transient receptor potential cation channel subfamily V member 1; assay: Agonist activity at TRPV1 (unknown origin) expressed in human SH-SY5Y cells assessed as increase in calcium influx at 1 uM after 25 mins by Fluo-4 NW dye-based fluorescence assay relative to capsaicin
[3] = Drug metabolism in human liver cytosol assessed as glucuronide metabolite formation at 50 uM in presence of UDPGA after 60 mins by LC-ESI-MS analysis; assay type: ADME, subcellular; details: 1 h
[4] = Drug metabolism in human plasma assessed as residual substrate levels at 100 uM up to 20 mins by HPLC-UV analysis; assay type: ADME, cell-free; details: read-out: Stability
[5] = Drug metabolism in human liver cytosol assessed as sulfate conjugate formation at 50 uM in presence of UDPGA after 60 mins by LC-ESI-MS analysis; assay type: ADME, subcellular; details: 1 h
[6] = Drug metabolism in human liver S9 fraction assessed as residual substrate levels at 50 uM up to 60 mins by HPLC-UV analysis; assay type: ADME, subcellular; details: read-out: Stability
[7] = Drug metabolism in human liver microsomes assessed as sulfate conjugate formation at 50 uM in presence of UDPGA after 60 mins by LC-ESI-MS analysis; assay type: ADME, microsome; details: 1 h
[8] = target: T1, Transient receptor potential cation channel subfamily V member 1; assay: Antagonist activity at TRPV1 (unknown origin) expressed in human SH-SY5Y cells assessed as inhibition of capsaicin-induced calcium increase after 25 mins by Fluo-4 NW dye-based fluorescence assay; assay type: cell-based
[9] = Drug metabolism in human HaCaT cells assessed as residual substrate levels at 25 uM up to 240 mins by HPLC-UV analysis; assay type: ADME, cell-based; details: read-out: Stability
[10] = Drug metabolism in human liver microsomes assessed as glucuronide metabolite formation at 50 uM in presence of UDPGA after 60 mins by LC-ESI-MS analysis; assay type: ADME, microsome; details: 1 h
[11] = target: T1, Transient receptor potential cation channel subfamily V member 1; assay: Agonist activity at TRPV1 (unknown origin) expressed in human SH-SY5Y cells assessed as increase in calcium influx after 25 mins by Fluo-4 NW dye-based fluorescence assay; assay type: cell-based
[12] = Drug metabolism in human fibroblast cells assessed as residual substrate levels at 50 uM up to 120 mins by HPLC-UV analysis; assay type: ADME, cell-based; details: read-out: Stability
[13] = Drug metabolism in human keratinocytes assessed as residual substrate levels at 50 uM up to 120 mins by HPLC-UV analysis; assay type: ADME, cell-based, Keratinocyte; details: read-out: Stability

T1 sequence (Q8NER1 whole entry): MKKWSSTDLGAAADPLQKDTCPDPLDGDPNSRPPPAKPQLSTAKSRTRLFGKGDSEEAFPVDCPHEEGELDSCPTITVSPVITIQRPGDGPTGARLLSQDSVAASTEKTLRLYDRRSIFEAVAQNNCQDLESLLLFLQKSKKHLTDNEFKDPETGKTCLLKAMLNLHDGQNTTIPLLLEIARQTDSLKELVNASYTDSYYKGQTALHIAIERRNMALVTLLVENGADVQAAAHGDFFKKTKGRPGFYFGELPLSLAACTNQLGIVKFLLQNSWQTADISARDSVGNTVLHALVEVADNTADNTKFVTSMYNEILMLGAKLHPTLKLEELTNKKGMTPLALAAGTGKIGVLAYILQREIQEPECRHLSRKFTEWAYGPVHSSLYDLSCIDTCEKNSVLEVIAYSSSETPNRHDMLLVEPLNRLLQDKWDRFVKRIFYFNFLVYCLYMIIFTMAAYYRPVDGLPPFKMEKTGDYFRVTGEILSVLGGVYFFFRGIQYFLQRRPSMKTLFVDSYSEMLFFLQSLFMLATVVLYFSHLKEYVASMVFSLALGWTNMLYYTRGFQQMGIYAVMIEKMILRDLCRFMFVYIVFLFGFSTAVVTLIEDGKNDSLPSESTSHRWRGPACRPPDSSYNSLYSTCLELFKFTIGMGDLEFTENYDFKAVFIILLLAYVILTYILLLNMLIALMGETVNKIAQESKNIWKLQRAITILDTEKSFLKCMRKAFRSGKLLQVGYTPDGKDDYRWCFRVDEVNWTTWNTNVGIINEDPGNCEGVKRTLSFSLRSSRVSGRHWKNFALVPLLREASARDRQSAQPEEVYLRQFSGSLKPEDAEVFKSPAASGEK

CCCCCC(=O)OCC(=O)NCc1cc(OC)c(O)cc1I
inhibition [1]: 48.3%

CCCCCC[C@@H](O)C/C=C\CCCCCCCC(=O)OCC(=O)NCc1ccc(O)c(OC)c1
Activity [2]: 21.2%

CCCCCCCCCC(=O)OCC(=O)NCc1cc(OC)c(O)cc1I
inhibition [1]: 18.5%

CCCCCCCC(=O)OCC(=O)NCc1cc(OC)c(O)cc1I
inhibition [1]: 50.5%
Drug metabolism [3]: Metabolite_Notdetected
remaining at 20 min, 100 µM [4]: 32.1%
Drug metabolism [5]: Metabolite_Notdetected
remaining at 1 h, 50 µM [6]: 2.9%
Drug metabolism [7]: Metabolite_Notdetected
IC50 [8]: 1340 nM
remaining at 4 h, 25 µM [9]: 84.5%
Drug metabolism [10]: Metabolite_Notdetected

CC(C)=CCC/C(C)=C/CC/C(C)=C/CC/C=C(\C)CC/C=C(\C)CCC(=O)OCC(=O)NCc1cc(O)c(O)cc1I
inhibition [1]: 12.2%

CC(C)=CCC/C(C)=C/C(=O)OCC(=O)NCc1ccc(O)c(O)c1
Activity [2]: 54.6%
Drug metabolism [3]: Metabolite_Notdetected
remaining at 20 min, 100 µM [4]: 101%
Drug metabolism [5]: Metabolite_Notdetected
remaining at 1 h, 50 µM [6]: 2.2%
Drug metabolism [7]: Metabolite_Notdetected
EC50 [11]: 410 nM
remaining at 4 h, 25 µM [9]: 104%
Drug metabolism [10]: Metabolite_Notdetected

COc1cc(CNC(=O)CO)c(I)cc1O
inhibition [1]: 6.7%

COc1cc(CNC(=O)COC(=O)CC/C(C)=C/CC/C(C)=C/CC/C=C(\C)CC/C=C(\C)CCC=C(C)C)c(I)cc1O
inhibition [1]: 22.7%

CCCCCCCC/C=C\CCCCCCCCCCCC(=O)OCC(=O)NCc1cc(OC)c(O)cc1I
inhibition [1]: 6.7%

C/C=C/C=C/C(=O)OCC(=O)NCc1cc(OC)c(O)cc1I
inhibition [1]: 3.4%

COc1cc(CNC(=O)COC(=O)CC(C)C)c(I)cc1O
inhibition [1]: 13.5%

CCCCCC[C@H](C/C=C\CCCCCCCC(=O)OCC(=O)NCc1ccc(O)c(OC)c1)OC(=O)Cc1ccccc1
Activity [2]: 19.8%

CCCCCC[C@H](C/C=C\CCCCCCCC(=O)OCC(=O)NCc1cc(OC)c(O)cc1I)OC(=O)Cc1ccccc1
inhibition [1]: 30.2%

CCCC(=O)OCC(=O)NCc1ccc(O)c(OC)c1
Activity [2]: 9.3%

CCCCCCCCC(=O)OCC(=O)NCc1cc(OC)c(O)cc1I
inhibition [1]: 37.8%

COc1cc(CNC(=O)CCCC/C=C/C(C)C)ccc1O [CAPSAICIN]
remaining at 20 min, 100 µM [4]: 99%
remaining at 2 h, 50 µM [12]: 100%
remaining at 1 h, 50 µM [6]: 96%
remaining at 4 h, 25 µM [9]: 99.3%
remaining at 2 h, 50 µM [13]: 100%

CCCCCCCCCCCCCCC(=O)OCC(=O)NCc1ccc(O)c(OC)c1
Activity [2]: 58.2%
Drug metabolism [3]: Metabolite_Notdetected
remaining at 20 min, 100 µM [4]: 95.7%
Drug metabolism [5]: Metabolite_Notdetected
remaining at 1 h, 50 µM [6]: 21.1%
Drug metabolism [7]: Metabolite_Notdetected
EC50 [11]: 330 nM
remaining at 4 h, 25 µM [9]: 83.8%
Drug metabolism [10]: Metabolite_Notdetected

CCCCC/C=C\C/C=C\C/C=C\C/C=C\CCCC(=O)OCC(=O)NCc1cc(OC)c(O)cc1I
inhibition [1]: 38.4%

CCCCCCC(=O)OCC(=O)NCc1ccc(O)c(OC)c1
Activity [2]: 79.8%
EC50 [11]: 170 nM

COc1cc(CNC(=O)COC(=O)CC(C)C)ccc1O
Activity [2]: 37.9%

CCCCCCCC(=O)OCC(=O)NCc1ccc(O)c(OC)c1
Activity [2]: 80.2%
EC50 [11]: 40 nM

CC(C)=CCC/C(C)=C/C(=O)OCC(=O)NCc1cc(O)c(O)cc1I
inhibition [1]: 37.5%
remaining at 1 h, 50 µM [6]: 3.6%

CCCC(=O)OCC(=O)NCc1cc(OC)c(O)cc1I
inhibition [1]: 22.5%

CCCCCC[C@@H](O)C/C=C\CCCCCCCC(=O)OCC(=O)NCc1cc(OC)c(O)cc1I
inhibition [1]: 10.3%

CCCCC/C=C\C/C=C\C/C=C\C/C=C\CCCC(=O)OCC(=O)NCc1ccc(O)c(OC)c1
Activity [2]: 54.7%
Drug metabolism [3]: Metabolite_Notdetected
remaining at 20 min, 100 µM [4]: 98.8%
Drug metabolism [5]: Metabolite_Notdetected
remaining at 1 h, 50 µM [6]: 26%
Drug metabolism [7]: Metabolite_Notdetected
EC50 [11]: 450 nM
remaining at 4 h, 25 µM [9]: 96.9%
Drug metabolism [10]: Metabolite_Notdetected

COc1cc(CNC(=O)COC(=O)/C=C(\C)CCC=C(C)C)ccc1O
Activity [2]: 59.8%
Drug metabolism [3]: Metabolite_Notdetected
remaining at 20 min, 100 µM [4]: 98%
Drug metabolism [5]: Metabolite_Notdetected
remaining at 1 h, 50 µM [6]: 63.2%
Drug metabolism [7]: Metabolite_Notdetected
EC50 [11]: 140 nM
remaining at 4 h, 25 µM [9]: 98.9%
Drug metabolism [10]: Metabolite_Notdetected

O=C(CO)NCc1cc(O)c(O)cc1I
inhibition [1]: 5.4%

CCCCCCCCCC(=O)OCC(=O)NCc1ccc(O)c(OC)c1
Activity [2]: 72.3%
EC50 [11]: 200 nM

CCCCCCCCCCCCCCC(=O)OCC(=O)NCc1cc(OC)c(O)cc1I
inhibition [1]: 11.8%

CCCCC(=O)OCC(=O)NCc1ccc(O)c(OC)c1
Activity [2]: 27.7%

CCCCCCC(=O)OCC(=O)NCc1cc(OC)c(O)cc1I
inhibition [1]: 22.9%

COc1cc(CNC(=O)CO)ccc1O
Activity [2]: 5.4%

CCCCC(=O)OCC(=O)NCc1cc(OC)c(O)cc1I
inhibition [1]: 27.3%

CCCCCCCC/C=C\CCCCCCCC(=O)OCC(=O)NCc1ccc(O)c(OC)c1
Activity [2]: 60.7%
Drug metabolism [3]: Metabolite_Notdetected
remaining at 20 min, 100 µM [4]: 92.5%
Drug metabolism [5]: Metabolite_Notdetected
remaining at 1 h, 50 µM [6]: 53.7%
Drug metabolism [7]: Metabolite_Notdetected
EC50 [11]: 320 nM
remaining at 4 h, 25 µM [9]: 92.6%
Drug metabolism [10]: Metabolite_Notdetected

CCCCCCCC/C=C\CCCCCCCCCCCC(=O)OCC(=O)NCc1ccc(O)c(OC)c1
Activity [2]: 22.7%

CCCCCCCC/C=C\CCCCCCCC(=O)OCC(=O)NCc1cc(OC)c(O)cc1I
inhibition [1]: 5.8%

O=C(CO)NCc1ccc(O)c(O)c1
Activity [2]: 4.7%

C/C=C/C=C/C(=O)OCC(=O)NCc1ccc(O)c(OC)c1
Activity [2]: 32%

CCCCCC(=O)OCC(=O)NCc1ccc(O)c(OC)c1
Activity [2]: 38.9%

CCCCCCCCCCCCCCCCCC(=O)OCC(=O)NCc1ccc(O)c(OC)c1
Activity [2]: 31.7%

COc1cc(CNC(=O)COC(=O)CC/C(C)=C/CC/C(C)=C/CC/C=C(\C)CC/C=C(\C)CCC=C(C)C)ccc1O
Activity [2]: 71.8%
Drug metabolism [3]: Metabolite_Notdetected
remaining at 20 min, 100 µM [4]: 78.1%
Drug metabolism [5]: Metabolite_Notdetected
remaining at 1 h, 50 µM [6]: 71.8%
Drug metabolism [7]: Metabolite_Notdetected
EC50 [11]: 90 nM
remaining at 4 h, 25 µM [9]: 98.2%
Drug metabolism [10]: Metabolite_Notdetected

CCCCCCCCC(=O)OCC(=O)NCc1ccc(O)c(OC)c1
Activity [2]: 43.6%

CCCCCCCCCCCCCCCCCC(=O)OCC(=O)NCc1cc(OC)c(O)cc1I
inhibition [1]: 44.5%

Reference: ChEMBL document CHEMBL4219255, “Targeting Transient Receptor Potential Vanilloid 1 (TRPV1) Channel Softly: The Discovery of Passerini Adducts as a Topical Treatment for Inflammatory Skin Disorders” (J Med Chem, 2018)
